According to PMC10257182, “Discovery of senolytics using machine learning” (Nature Communications, 2023):
“And” between values parts separate entries of the source, which are not always exact repeats. Equal entries are not always repeated.

Assays:
Assay type in all cases: cell-based, human
[1] = system: IL1α, IL1β and IL8 mRNA in IMR90 cells at passage 27; test: IL1α, IL1β and IL8 mRNA expression by RT-qPCR, replicative senescence; details: Replicative senescence cells treated with Oleandrin; relative to Replicative senescence DMSO = 1; individual replicates (Sup Fig 9M)
Procedure: (§1) Total RNA was isolated using RNAeasy kit (Quiagen). cDNA was generated with reverse transcriptase iScript (Bio-Rad). RT-qPCR was performed using SYBR Select Master Mix (Applied Biosystems) in OneStepPlus detection system (Applied Biosystems). Oligos for amplification were: NOXA Fw-[…] and Rv-[…]; b-ACTIN Fw-[…] and Rv-[…]; IL1a Fw-[…] and Rv- […]; IL1b Fw-[…] and Rv- […]; IL8 Fw-[…] and Rv-[…]; p16 Fw-CGGTCGGAGGCCGATCCAG and Rv- […]; p21Fw-[…] and Rv- […].

[2] = system: IL1α, IL1β and IL8 mRNA in IMR90 ER:RAS cells; test: IL1α, IL1β and IL8 mRNA expression by RT-qPCR, OIS
Procedure: as §1

[3] = system: p16 and p21 mRNA in IMR90 ER:RAS cells; test: p16 and p21 mRNA expression by RT-qPCR, OIS
Procedure: as §1

[4] = system: p16 and p21 mRNA in IMR90 cells at passage 27; test: p16 and p21 mRNA expression by RT-qPCR, replicative senescence
Procedure: as §1

control A549 cells = test: Cell survival assay using crystal violet staining, TIS, control cells; details: fraction of Control DMSO = 1, n 15
[5] = ER:RAS cells treated with Oleandrin, relative to ER:RAS DMSO = 1, individual replicates (Sup Fig 9L)
[6] = ER:RAS cells, ER:RAS DMSO = 1, single replicates (SUP FIG 9J)
[7] = Replicative senescence, Replicative senescence DMSO = 1, single replicates (SUP FIG 9K)

## CO[C@H]1C[C@H](O[C@H]2CC[C@@]3(C)[C@H](CC[C@@H]4[C@@H]3CC[C@]3(C)[C@@H](C5=CC(=O)OC5)[C@@H](OC(C)=O)C[C@]43O)C2)O[C@@H](C)[C@@H]1O [Oleandrin, oleandrin]
[1]
  Il1a mRNA expression: 0.137 and 0.086
  Il1b mRNA expression: 0.212 and 0.341 and 0.688 and 0.490
  Il8 mRNA expression: 0.310 and 0.732 and 0.719
[2]; [5]
  Il1a mRNA expression: 0.753 and 0.593 and 0.059 and 0.346
  Il1b mRNA expression: 0.833 and 0.618 and 0.476 and 0.758 and 0.763 and 0.829
  Il8 mRNA expression: 0.635 and 0.462 and 0.310 and 0.125 and 0.299
[2]; OIS, 10 nM, three days
  expression of proinflammatory cytokines IL1α, IL1β and IL8 mRNA in surviving cells, in words: reduced expression
[3]; [6]
  p16 mRNA expression: 0.68 and 0.69 and 0.24 and 0.46
  p21 mRNA expression: 0.34 and 0.51 and 0.72 and 0.48
[3]; OIS, 10 nM, three days
  mRNA expression of the senescence markers p16 and p21 in surviving cells, in words: reduced
[4]; [7]
  p16 mRNA expression: 0.71 and 0.46 and 0.42
  p21 mRNA expression: 0.65 and 0.25 and 0.44
[4]; replicative senescence, 10 nM, three days
  mRNA expression of the senescence markers p16 and p21 in surviving cells, in words: reduced
Control A549 cells
  Cell survival, mean (Test details, Mean 2): 1.13
